According to ChEMBL document CHEMBL2073835, “Apical uptake of organic cations by human intestinal Caco-2 cells: putative involvement of ASF transporters” (Naunyn Schmiedebergs Arch Pharmacol, 2001):

These molecules were tested against T1, Solute carrier family 22 member 3 (Homo sapiens, UniProt O75751) (assay: TP_TRANSPORTER: inhibition of MPP+ uptake (MPP+: 0.2 uM) in OCT3-expressing HEK293 cells).
T1 sequence (O75751 whole entry): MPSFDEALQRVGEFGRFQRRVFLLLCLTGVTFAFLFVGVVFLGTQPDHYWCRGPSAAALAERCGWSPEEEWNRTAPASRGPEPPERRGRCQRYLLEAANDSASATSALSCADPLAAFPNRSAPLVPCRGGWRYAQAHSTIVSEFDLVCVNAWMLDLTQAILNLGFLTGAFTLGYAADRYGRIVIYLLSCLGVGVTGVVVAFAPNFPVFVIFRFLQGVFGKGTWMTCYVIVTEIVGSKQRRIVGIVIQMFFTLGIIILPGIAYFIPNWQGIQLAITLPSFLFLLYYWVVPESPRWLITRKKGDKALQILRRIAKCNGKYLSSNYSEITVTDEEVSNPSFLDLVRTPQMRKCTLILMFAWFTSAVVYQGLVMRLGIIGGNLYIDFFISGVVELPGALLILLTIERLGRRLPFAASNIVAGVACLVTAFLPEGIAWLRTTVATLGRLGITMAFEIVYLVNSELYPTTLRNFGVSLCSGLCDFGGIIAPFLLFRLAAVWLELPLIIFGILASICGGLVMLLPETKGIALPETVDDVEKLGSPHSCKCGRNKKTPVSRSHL
Type: functional, cell-based
Work on `CC[N+](CC)(CC)CC` [TETRYLAMMONIUM] yielded an IC50 of 10300 µM. `Clc1cccc(Cl)c1N=C1NCCN1` [CLONIDINE] was tested, and the IC50 was 79.3 µM. Work on `CC[n+]1c(CC2C=C(C)N=C(c3ccccc3)N2C)ccc2ccccc21` (stereo not drawn) [Cyanine-863] yielded an IC50 of 1.76 µM.
